Entries after “also recorded” stand apart in the source; their conditions may differ.
Legend:
MCF-7 cells [1] = test: Cell cycle analysis by flow cytometry (PI staining); format: cell-based, human; conditions: MCF-7 treated at IC50 concentration; for percentage of cells in pre-G1 phase (%Pre-G1) / percentage of cells in G2/M phase (%G2/M) / percentage of cells in S phase (%S) / percentage of cells in G0/G1 phase (%G0-G1): 24 h; for percentage of cells in pre-G1 phase (%Pre-G1): untreated control 1.85%; for percentage of cells in G2/M phase (%G2/M): untreated control 11.84%; for percentage of cells in S phase (%S): untreated control 29.95%; for percentage of cells in G0/G1 phase (%G0-G1): untreated control 58.21%
Method: For further investigation of the promising antiproliferative activity of compounds 11, 12, 13 and 27 on breast cancer MCF-7 cell line, cell cycle analysis was carried out using flow cytometric assay. […] The flow cytometric assay results were compared to the negative control untreated MCF-7 cell line.
MCF-7 cells were seeded in 24-well plate at a density of 2 × 10^5 cells/well, treated with the test compounds 11, 12, 13 and 27 at different concentrations and incubated at 37 °C for 24 h in 5% CO2 atmosphere. The cells were washed with ice-cold phosphate buffer saline (PBS) twice and fixed in 70% ice-cold ethanol overnight and then suspended in (PBS) containing PI (DNA staining solution) at concentration of 50 µg/mL, 0.1 mg/mL RNAase A (Sigma, USA) and 0.05% Triton X-100. Cells were analysed by flow cytometry after 30 min at 37 n the dark using FACSCalibur (Becton Dickinson FACS, San Jose, CA) flow cytometer. The cell cycle distributions were measured using Cell-Quest software.
Suppl. S3. Cell cycle analysis for compounds 11, 12, 13 and 27 […]
Assay : Cell Cycle Analysis
Kit used : ab139418_Propidium Iodide Flow Cytometry Kit/BD
Assay samples : Cell culture
Table S3. Cell cycle phase distribution in MCF-7 cell line treated with vehicle control and the newly synthesised compounds; 11, 12, 13 and 27. […]

PARP-2 enzyme = target: T1, PARP-2 enzyme (Homo sapiens, UniProt Q9UGN5); test: Poly (ADP-ribose) polymerase 2 (PARP-2) inhibition assay (colorimetric kit); format: biochemical; conditions: for IC50: in vitro enzyme assay
T1 construct: purchased BPS Bioscience 80,581
T1 sequence (Q9UGN5 whole entry): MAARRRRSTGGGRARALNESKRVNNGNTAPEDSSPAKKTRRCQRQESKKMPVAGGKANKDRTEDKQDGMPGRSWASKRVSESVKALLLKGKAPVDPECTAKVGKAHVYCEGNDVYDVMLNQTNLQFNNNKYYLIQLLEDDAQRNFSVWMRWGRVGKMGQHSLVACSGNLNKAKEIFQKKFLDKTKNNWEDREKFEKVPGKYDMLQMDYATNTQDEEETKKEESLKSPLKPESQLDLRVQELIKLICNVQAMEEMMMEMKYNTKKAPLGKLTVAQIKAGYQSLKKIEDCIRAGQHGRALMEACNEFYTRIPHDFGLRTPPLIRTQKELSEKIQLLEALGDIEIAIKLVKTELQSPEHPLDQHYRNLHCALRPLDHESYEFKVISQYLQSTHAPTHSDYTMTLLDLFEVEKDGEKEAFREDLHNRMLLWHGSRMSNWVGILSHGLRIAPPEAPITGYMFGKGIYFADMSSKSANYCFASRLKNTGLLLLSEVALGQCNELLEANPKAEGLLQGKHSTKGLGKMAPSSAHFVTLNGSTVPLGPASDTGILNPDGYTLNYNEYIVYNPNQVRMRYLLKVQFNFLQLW
Method: Results were expressed as IC50 values (Table 2).
The PARP-2 inhibitory activity of the test compounds was assayed using PARP-2 Colorimetric Activity Assay Kit (BPS Bioscience, catalog 80,581, San Diego, CA, USA) following the manufacturer’s protocol. Briefly, histone protein mixture was coated on a 96-well microtiter plate and incubated at 4 °C overnight, washed with phosphate-buffered saline with tween-20 (PBST) three times then, the wells were blocked by adding blocking buffer 3 and incubated at room temperature for 60–90 min. After that, the plate was washed with PBST buffer three times. The master mixture which contains the PARP buffer, PARP assay mixture, activated DNA and distilled water was added to each well then, the inhibitor solution (test compound) was added. The reaction was initiated by adding PARP-2 enzyme to the wells and the plate was incubated for 1 h at room temperature. After 1 h, the reaction mixture was discarded, and the plate was washed with PBST buffer three times. Finally, the plate was treated with Streptavidin–Horseradish Peroxidase (HRP) and incubated for 30 min at room temperature and then washed with PBST buffer. The colorimetric HRP substrate was added to each well and incubated at room temperature until the positive control well developed blue color. Sulphuric acid was added to each well after the blue color development. The absorbance was read at 450 nm using UV/Vis spectrophotometer microplate reader.
Suppl. S2. In vitro PARP-2 enzyme inhibition assay
Researcher : Dr. Nadeen Ghobashy email:elghobashynadeen@gmail.com mob.01008873340
Reader : ROBONIK P2000 Eliza Reader wl 450 nm

MDA-MB-231 = test: In vitro cytotoxicity screening, MTT assay; conditions: Homo sapiens, MDA-MB-231, 24 h, read-out: In vitro Cytotoxicity (IC50, µM) MDA-MB-231
From the text: Two human breast cancer cell lines, namely, MDA-MB-231 and MCF-7 were obtained from American Type Culture Collection (ATCC) via a holding company for biological products and vaccines (VACSERA), Cairo, Egypt. […] The reagents used were RPMI-1640 medium, MTT, DMSO (sigma co., St. Louis, USA), and Fetal bovine serum (GIBCO, UK). […] MTT is a colorimetric assay based on the conversion of the yellow tetrazolium bromide (MTT) to a purple formazan derivative by mitochondrial succinate dehydrogenase in viable cells. Cell lines were cultured in RPMI-1640 medium with 10% foetal bovine serum. Antibiotics added were 100 units/ml penicillin and 100 µg/ml streptomycin maintained at 37 °C in a 5% CO2 incubator. The cell lines were seeded at a density of approximately 1.0 × 10 ^4 cells/well in a 96-well plate at 37 °C for 48 h under 5% CO2. Different concentrations of compounds were added and incubated for 24 h. After 24 h of drug treatment, 20 µl of MTT staining solution at 5 mg/ml was added to each well and incubated for 4 h at 37 °C. After 4 h, 100 µl of dimethyl sulfoxide (DMSO) were added into each well to dissolve the purple formazan crystals formed. The absorbance was recorded at 570 nm using a plate reader (EXL 800, USA). The relative cell viability in percentage was calculated as (A570 of treated samples/A570 of untreated sample) X 100 [22],[23].

MCF-7 cells [2] = test: Annexin V-FITC/PI double staining flow cytometry, apoptosis and necrosis; format: cell-based, human; conditions: MCF-7 treated at IC50 concentration, 24 h; for % Late apoptosis: untreated control 0.33%; for % Early apoptosis: untreated control 0.37%; for % Necrosis: untreated control 1.15%; for % Total apoptosis: untreated control 1.85%
From the text: Apoptosis, which is a programmed cell death, is considered as an important way to express cell death among anticancer agents. Most of the anticancer agents can induce apoptosis in cancerous cells. To examine whether the potent cytotoxic effect of 11, 12, 13 and 27 was attributed to apoptosis or necrosis, annexin V-FITC propidium iodide (PI) double staining flow cytometry assay was applied. […] The cells were then stained with annexin V-FITC propidium iodide (PI) and the percentage of apoptotic cells was determined by flow cytometry. […] Compounds 11, 12, 13 and 27 induced necrotic effect 5.74%, 7.23%, 6.39% and 2.07%, respectively in comparison to the untreated negative control MCF-7 cells (1.15%).
Cell death by apoptosis was detected by flow cytometric method using Annexin-V/FITC propidium iodide Apoptosis Detection Kit Catalog #: K101-25; Biovision, USA). MCF-7 cells were seeded at a density of 2 × 10 ^5 cells/well in 24-well plate, treated with the test compounds 11, 12, 13 and 27 at different concentrations and incubated at 37 °C for 24 h in 5% CO2 atmosphere. Cells were collected and suspended in 500 µl binding buffer and then 5 µl of Annexin V-FITC and 5 µl of PI were added and mixed. The mixture was incubated for 5 min in the dark at room temperature. Cell apoptosis analyses were performed using FACSCalibur (Becton Dickinson FACS, San Jose, CA) flow cytometer.

Question: Which “cell cycle arrest phase” value (MCF-7 cells [1]) does the source give for `O=C(CCN1CCCCC1)Nc1ccc(-c2nc3cc(Cl)ccc3o2)cc1` [Compound 11, N-(4-(5-chlorobenzoxazol-2-yl)phenyl)-3-(piperidin-1-yl)propanamide] here?
Answer: cell growth arrest@ G1; also recorded: cell cycle arrest at G0/G1 phase

Question: And the “percentage of cells in pre-G1 phase (%Pre-G1)” value (“percentage of cells … (%Pre-G1)” for short) (MCF-7 cells [1])?
Answer: 45.07%

Question: And the “percentage of cells in G2/M phase (%G2/M)” value (“percentage … (%G2/M)” below) (MCF-7 cells [1])?
Answer: 7.22%

Question: What about the “percentage of cells in S phase (%S)” value (MCF-7 cells [1]) of the same compound?
Answer: 24.76%

Question: What about the “percentage of cells in G0/G1 phase (%G0-G1)” value (from here on “percentage of cells … (%G0-G1)”) (MCF-7 cells [1]) of the same compound?
Answer: 68.02%

Question: And the “%inh of PARP-2 (Table S2 raw data)” value (PARP-2 enzyme; conc 0.01 (ng/ml))?
Answer: 28.75%

Question: And the “%inh of PARP-2 (Table S2 raw data)” value (PARP-2 enzyme; conc 0.1 (ng/ml))?
Answer: 43.61%

Question: And the “%inh of PARP-2 (Table S2 raw data)” value (PARP-2 enzyme; conc 1 (ng/ml))?
Answer: 58.88%

Question: What about the “%inh of PARP-2 (Table S2 raw data)” value (PARP-2 enzyme; conc 10 (ng/ml)) of the same compound?
Answer: 84.97%

Question: And the IC50 (PARP-2 enzyme)?
Answer: 190 ± 10 nM

Question: And the IC50 (MDA-MB-231)?
Answer: 5.63 ± 0.3 µM

Question: What about the “% Late apoptosis” value (MCF-7 cells [2]) of the same compound?
Answer: 23.02%

Question: And the “% Early apoptosis” value (MCF-7 cells [2])?
Answer: 16.31%

Question: What about the “% Necrosis” value (MCF-7 cells [2]) of the same compound?
Answer: 5.74%

Question: And the “% Total apoptosis” value (MCF-7 cells [2])?
Answer: 45.07%

Question: Which “percentage of cells … (%Pre-G1)” value (MCF-7 cells [1]) does the source give for `O=C(CCN1CCOCC1)Nc1ccc(-c2nc3cc(Cl)ccc3o2)cc1` [Compound 12, N-(4-(5-chlorobenzoxazol-2-yl)phenyl)-3-morpholinopropanamide] here?
Answer: 33.47%

Question: What about the “percentage … (%G2/M)” value (MCF-7 cells [1]) of the same compound?
Answer: 32.04%

Question: And the “percentage of cells in S phase (%S)” value (MCF-7 cells [1])?
Answer: 26.18%

Question: What about the “percentage of cells … (%G0-G1)” value (MCF-7 cells [1]) of the same compound?
Answer: 41.78%

Question: What about the “%inh of PARP-2 (Table S2 raw data)” value (PARP-2 enzyme; conc 0.01 (ng/ml)) of the same compound?
Answer: 35.69%

Question: What about the “%inh of PARP-2 (Table S2 raw data)” value (PARP-2 enzyme; conc 0.1 (ng/ml)) of the same compound?
Answer: 53.11%

Question: And the “%inh of PARP-2 (Table S2 raw data)” value (PARP-2 enzyme; conc 1 (ng/ml))?
Answer: 67.93%

Question: And the “%inh of PARP-2 (Table S2 raw data)” value (PARP-2 enzyme; conc 10 (ng/ml))?
Answer: 90.18%

Question: And the IC50 (PARP-2 enzyme)?
Answer: 70 ± 4 nM

Question: What about the IC50 (MDA-MB-231) of the same compound?
Answer: 6.14 ± 0.5 µM

Question: What about the “% Late apoptosis” value (MCF-7 cells [2]) of the same compound?
Answer: 3.72%

Question: And the “% Early apoptosis” value (MCF-7 cells [2])?
Answer: 22.52%

Question: What about the “% Necrosis” value (MCF-7 cells [2]) of the same compound?
Answer: 7.23%

Question: And the “% Total apoptosis” value (MCF-7 cells [2])?
Answer: 33.47%

Question: What does the source list for `CN1CCN(CCC(=O)Nc2ccc(-c3nc4cc(Cl)ccc4o3)cc2)CC1` [Compound 13, N-(4-(5-chlorobenzoxazol-2-yl)phenyl)-3-(4-methylpiperazin-1-yl)propanamide]?
Answer: cell cycle arrest phase (MCF-7 cells [1]): cell growth arrest@ G2/M; also recorded: cell cycle arrest at G2/M phase; percentage of cells in pre-G1 phase (%Pre-G1) (MCF-7 cells [1]): 29.66%; percentage of cells in G2/M phase (%G2/M) (MCF-7 cells [1]): 26.51%; percentage of cells in S phase (%S) (MCF-7 cells [1]): 28.51%; percentage of cells in G0/G1 phase (%G0-G1) (MCF-7 cells [1]): 44.98%; %inh of PARP-2 (Table S2 raw data) (PARP-2 enzyme; conc 0.01 (ng/ml)): 30.58%; %inh of PARP-2 (Table S2 raw data) (PARP-2 enzyme; conc 0.1 (ng/ml)): 46.82%; %inh of PARP-2 (Table S2 raw data) (PARP-2 enzyme; conc 1 (ng/ml)): 71.31%; %inh of PARP-2 (Table S2 raw data) (PARP-2 enzyme; conc 10 (ng/ml)): 88.69%; IC50 (PARP-2 enzyme): 106 ± 6 nM; IC50 (MDA-MB-231): 7.52 ± 0.6 µM; % Late apoptosis (MCF-7 cells [2]): 10.99%; % Early apoptosis (MCF-7 cells [2]): 12.28%; % Necrosis (MCF-7 cells [2]): 6.39%; % Total apoptosis (MCF-7 cells [2]): 29.66%

Question: For `CCN(CC)CCC(=O)Nc1ccc(-c2nc3cc(Cl)ccc3o2)cc1` [Compound 27, N-(4-(5-chlorobenzoxazol-2-yl)phenyl)-3-(diethylamino)propanamide], which “percentage of cells … (%Pre-G1)” value (MCF-7 cells [1]) is on record?
Answer: 25.91%

Question: And the “percentage … (%G2/M)” value (MCF-7 cells [1])?
Answer: 4.46%

Question: And the “percentage of cells in S phase (%S)” value (MCF-7 cells [1])?
Answer: 33.16%

Question: What about the “percentage of cells … (%G0-G1)” value (MCF-7 cells [1]) of the same compound?
Answer: 62.38%

Question: What about the “%inh of PARP-2 (Table S2 raw data)” value (PARP-2 enzyme; conc 0.01 (ng/ml)) of the same compound?
Answer: 37.25%

Question: What about the “%inh of PARP-2 (Table S2 raw data)” value (PARP-2 enzyme; conc 0.1 (ng/ml)) of the same compound?
Answer: 52.67%

Question: What about the “%inh of PARP-2 (Table S2 raw data)” value (PARP-2 enzyme; conc 1 (ng/ml)) of the same compound?
Answer: 73.48%

Question: And the “%inh of PARP-2 (Table S2 raw data)” value (PARP-2 enzyme; conc 10 (ng/ml))?
Answer: 88.84%

Question: And the IC50 (PARP-2 enzyme)?
Answer: 57 ± 3 nM

Question: And the IC50 (MDA-MB-231)?
Answer: 11.3 ± 0.9 µM

Question: And the “% Late apoptosis” value (MCF-7 cells [2])?
Answer: 4.58%

Question: What about the “% Early apoptosis” value (MCF-7 cells [2]) of the same compound?
Answer: 19.26%

Question: And the “% Necrosis” value (MCF-7 cells [2])?
Answer: 2.07%

Question: What about the “% Total apoptosis” value (MCF-7 cells [2]) of the same compound?
Answer: 25.91%

— paper PMC9519869, “Synthesis, biological evaluation, and molecular modeling studies of new benzoxazole derivatives as PARP-2 inhibitors targeting breast cancer” (Scientific Reports, 2022)
